The results in this text go back to patent publication US20070249590A1, “Substituted indolo[2,3-a]pyrrolo[3,4-c]carbazole compounds useful in treating kinase disorders” (priority 2005, published 2007).

The structures appear in SMILES notation.

This assay addresses T1, JAK3 (JH1 and JH2 domain) (Homo sapiens, UniProt P52333).
T1 sequence (P52333 521-1111 limits assumed): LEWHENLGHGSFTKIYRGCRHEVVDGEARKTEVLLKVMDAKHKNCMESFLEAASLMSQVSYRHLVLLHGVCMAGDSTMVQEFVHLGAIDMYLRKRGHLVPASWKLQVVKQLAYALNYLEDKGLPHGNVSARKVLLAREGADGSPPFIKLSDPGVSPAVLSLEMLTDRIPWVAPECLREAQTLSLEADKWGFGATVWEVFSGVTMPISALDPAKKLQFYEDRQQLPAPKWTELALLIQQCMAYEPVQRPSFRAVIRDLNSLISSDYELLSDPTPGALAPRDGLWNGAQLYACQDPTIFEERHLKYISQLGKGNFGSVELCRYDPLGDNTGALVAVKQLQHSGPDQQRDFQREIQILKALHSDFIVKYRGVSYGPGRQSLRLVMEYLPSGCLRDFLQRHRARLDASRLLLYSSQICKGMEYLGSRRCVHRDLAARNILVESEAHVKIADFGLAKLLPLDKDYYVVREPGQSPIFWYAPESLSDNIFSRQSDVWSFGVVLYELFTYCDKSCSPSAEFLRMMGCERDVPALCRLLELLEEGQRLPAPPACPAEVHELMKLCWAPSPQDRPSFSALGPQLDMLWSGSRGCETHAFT
Briefly: JAK3 Kinase Assay (ELISA of peptide substrate phosphorylation). The format is biochemical. The conditions noted are these: purified JAK3 enzyme, 10 μM ATP, biotinylated peptide substrate, 1 hour at room temperature. The gist of the method: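 Sf21-baculovirus-expressed JAK3 (JH1+JH2), glutathione-bead purified, with biotinylated peptide substrate (in buffer containing 10 μM ATP) in HEPES pH 7.5/MgCl2/DTT, 1 h RT. Product was captured on Neutravidin, detected with HRP anti-phosphotyrosine (PY99)/TMB, OD 450/650 nm. Triplicate 16-point half-log series from 200 μM gave IC50; otherwise % inhibition at 1 μM.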
In general terms: ELISA stands for enzyme-linked immunosorbent assay.
As to `O=C(NCCCN1CCCC1=O)OCC1Cn2c3ccccc3c3c4c(c5c6ccccc6n(c5c32)C1)C(=O)NC4` (centres unmarked) [Cpd 157, 12,13-(2-{[3-(2-oxo-pyrrolidin-1-yl)prop-1-yl]carbamoyloxymethyl}-propan-1,3-yl)-6,7,12,13-tetrahydro-5-oxo-5H-indolo[2,3-a]pyrrolo[3,4-c]carbazole], the IC50 is more than 200 nM.
The result for `O=C1NC(=O)c2c1c1c3ccccc3n3c1c1c2c2ccccc2n1CC(OC(=O)N1CCN(CCO)CC1)C(O)C3` (centres unmarked) [Cpd 104, 12,13-(2-{[4-(2-hydroxy-ethyl)piperazin-1-yl]carbonyloxy}-3-hydroxy-butan-1,4-yl)-12,13-dihydro-5,7-dioxo-6H-indolo[2,3-a]pyrrolo[3,4-c]carbazole] reads 127 nM; that for `COc1ccc(CCNC(=O)OCC2(O)Cn3c4ccccc4c4c5c(c6c7ccccc7n(c6c43)C2)C(=O)NC5)cc1OC` (centres unmarked) [Cpd 153, 12,13-(2-hydroxy-2-{[2-(3,4-dimethoxy-phenyl)ethyl]carbamoyloxymethyl}-propan-1,3-yl)-6,7,12,13-tetrahydro-5-oxo-5H-indolo[2,3-a]pyrrolo[3,4-c]carbazole], 17 nM; that for `CN(C)CCN(Cc1ccccc1)C(=O)OC1Cn2c3ccccc3c3c4c(c5c6ccccc6n(c5c32)CC1O)C(=O)NC4=O` (centres unmarked) [Cpd 69, 12,13-(2-{[N-benzyl-N-(2-dimethylamino-ethyl)]carbamoyloxy}-3-hydroxy-butan-1,4-yl)-12,13-dihydro-5,7-dioxo-6H-indolo[2,3-a]pyrrolo[3,4-c]carbazole], 55 nM.
The result for `COC[C@H](C)NC(=O)OC1CCn2c3ccccc3c3c4c(c5c6ccccc6n(c5c32)CC1)C(=O)NC4` (stereo partly drawn) [Cpd 182, 12,13-[3-({2-[(1S)-2-methoxy-1-methyl]ethyl}carbamoyloxy)-pentan-1,5-yl]-6,7,12,13-tetrahydro-5-oxo-5H-indolo[2,3-a]pyrrolo[3,4-c]carbazole] reads 1670 nM.
In the case of `O=C1NCc2c1c1c3ccccc3n3c1c1c2c2ccccc2n1C[C@@H](O)[C@H](O)C3` [Cpd 19, 12,13-[(2R,3R)-dihydroxy-butan-1,4-yl]-6,7,12,13-tetrahydro-5-oxo-5H-indolo[2,3-a]pyrrolo[3,4-c]carbazole], the IC50 was 53 nM.
`COc1ccccc1CNC(=O)OCC1Cn2c3ccccc3c3c4c(c5c6ccccc6n(c5c32)C1)C(=O)NC4` (centres unmarked) [Cpd 169, 12,13-{2-[(2-methoxy-benzyl)carbamoyloxymethyl]-propan-1,3-yl}-6,7,12,13-tetrahydro-5-oxo-5H-indolo[2,3-a]pyrrolo[3,4-c]carbazole]: the IC50 stood at 73 nM.
In the case of `COc1ccc(CCNC(=O)OC2Cn3c4ccccc4c4c5c(c6c7ccccc7n(c6c43)CC2O)C(=O)NC5=O)cc1OC` (centres unmarked) [Cpd 84, 12,13-(2-{[2-(3,4-dimethoxy-phenyl)ethyl]carbamoyloxy}-3-hydroxy-butan-1,4-yl)-12,13-dihydro-5,7-dioxo-6H-indolo[2,3-a]pyrrolo[3,4-c]carbazole], the 50% inhibitory concentration (IC50) came to 187 nM.
As to `O=C1NCc2c1c1c3ccccc3n3c1c1c2c2ccccc2n1C/C=C\C3` [Cpd 2, 12,13-(but-2-en-1,4-yl)-6,7,12,13-tetrahydro-5-oxo-5H-indolo[2,3-a]pyrrolo[3,4-c]carbazole], the IC50 was found to be 40 nM.
To `O=C1NC(=O)c2c1c1c3ccccc3n3c1c1c2c2ccccc2n1C/C=C\C3` [Cpd 1, 12,13-(but-2-en-1,4-yl)-12,13-dihydro-5,7-dioxo-6H-indolo[2,3-a]pyrrolo[3,4-c]carbazole] belongs 22 nM.
Regarding `CC(C)(C)OC(=O)NC1CCN(C(=O)OCC2Cn3c4ccccc4c4c5c(c6c7ccccc7n(c6c43)C2)C(=O)NC5)CC1` (centres unmarked) [Cpd 172, 12,13-(2-{[4-(t-butoxycarbonylamino)piperidin-1-yl]carbonyloxymethyl}-propan-1,3-yl)-6,7,12,13-tetrahydro-5-oxo-5H-indolo[2,3-a]pyrrolo[3,4-c]carbazole], the IC50 worked out at 120 nM.

Usually IC50 stands for the midpoint of a concentration-inhibition curve.
